Our source for the ring closure, yield over several steps values is paper PMC12667733.

This data set in a line: head-to-tail lactamisation of side-chain-protected linear peptides, PyBOP (2 equiv), DIPEA (3 equiv, added dropwise), overnight at rt under N2; then TFA global deprotection and prep RP-HPLC. Conditions: the molecule shown is the open-chain precursor, DMF, 1.0 mM, 25.0 °C, 2 steps.

Structures are written as SMILES.

In the case of `C[C@H](N)C(=O)N[C@@H](COC(C)(C)C)C(=O)N[C@@H](Cc1ccc(OC(C)(C)C)cc1)C(=O)N[C@@H](COC(C)(C)C)C(=O)N[C@@H](COC(C)(C)C)C(=O)N[C@@H](CCCCNC(=O)OC(C)(C)C)C(=O)N1CCC[C@H]1C(=O)N[C@@H](Cc1ccccc1)C(=O)N[C@@H](COC(C)(C)C)C(=O)O`, the ring closure, yield over several steps (27-membered ring) came to 62%.

In the case of `Cc1c(C)c(S(=O)(=O)NC(=N)NCCC[C@H](NC(=O)CN)C(=O)N[C@H](C(=O)N[C@@H](CCCCNC(=O)OC(C)(C)C)C(=O)N[C@@H](C)C(=O)O)C(C)C)c(C)c2c1OC(C)(C)C2` [H-Gly-Arg(Pbf)-Val-Lys(Boc)-Ala-OH], the ring closure, yield over several steps (15-membered ring) worked out at 63%.

Turning to `CC(C)C[C@H](NC(=O)CN)C(=O)N[C@@H](Cc1cn(C(c2ccccc2)(c2ccccc2)c2ccccc2)cn1)C(=O)N[C@@H](Cc1ccccc1)C(=O)N[C@@H](C)C(=O)N[C@@H](Cc1ccccc1)C(=O)N1CCC[C@H]1C(=O)O` [H-Gly-Leu-His(Trt)-Phe-Ala-Phe-Pro-OH], for the setting “21-membered ring”, the ring closure, yield over several steps stood at 56%.

Turning to `CC(C)C[C@H](NC(=O)CN)C(=O)N[C@@H](COC(C)(C)C)C(=O)N[C@@H](Cc1ccccc1)C(=O)N[C@@H](C)C(=O)N[C@@H](Cc1ccccc1)C(=O)N1CCC[C@H]1C(=O)O` [H-Gly-Leu-Ser(tBu)-Phe-Ala-Phe-Pro-OH], the ring closure, yield over several steps (21-membered ring) was found to be 54%.

Consider `Cc1c(C)c(S(=O)(=O)NC(=N)NCCC[C@H](NC(=O)[C@H](Cc2ccc(OC(C)(C)C)cc2)NC(=O)CN)C(=O)N[C@@H](Cc2ccccc2)C(=O)N[C@@H](COC(C)(C)C)C(=O)O)c(C)c2c1OC(C)(C)C2` [H-Gly-Tyr(tBu)-Arg(Pbf)-Phe-Ser(tBu)-OH], for which the ring closure, yield over several steps (15-membered ring) turned out to be 64%.

In the case of `CC(C)C[C@H](NC(=O)[C@@H]1CCCN1C(=O)[C@@H](NC(=O)[C@H](Cc1ccc(OC(C)(C)C)cc1)NC(=O)CN)C(C)C)C(=O)N[C@@H](Cc1cn(C(=O)OC(C)(C)C)c2ccccc12)C(=O)N1CCC[C@H]1C(=O)O` [H-Gly-Tyr(tBu)-Val-Pro-Leu-Trp(Boc)-Pro-OH], for the setting “21-membered ring”, the ring closure, yield over several steps amounted to 57%.

In the case of `CC(C)[C@H](NC(=O)CN)C(=O)N[C@@H](C)C(=O)N[C@@H](Cc1cn(C(=O)OC(C)(C)C)c2ccccc12)C(=O)N[C@@H](C)C(=O)O` [H-Gly-Val-Ala-Trp(Boc)-Ala-OH], under “15-membered ring”, the ring closure, yield over several steps came to 48%.

As for `CC(C)[C@H](NC(=O)CN)C(=O)N[C@@H](CCCCNC(=O)OC(C)(C)C)C(=O)N[C@@H](Cc1ccc(OC(C)(C)C)cc1)C(=O)N[C@@H](C)C(=O)O` [H-Gly-Val-Lys(Boc)-Tyr(tBu)-Ala-OH], the ring closure, yield over several steps (15-membered ring) came out at 68%.

Consider `CC(C)[C@H](NC(=O)[C@@H]1CCCN1C(=O)[C@@H](NC(=O)CN)C(C)C)C(=O)N[C@@H](Cc1cn(C(=O)OC(C)(C)C)c2ccccc12)C(=O)N[C@@H](C)C(=O)O` [H-Gly-Val-Pro-Val-Trp(Boc)-Ala-OH], for which, where the note is “18-membered ring”, the ring closure, yield over several steps worked out at 51%.

With `CC(C)C[C@H](NC(=O)CNC(=O)[C@H](Cc1cn(C(c2ccccc2)(c2ccccc2)c2ccccc2)cn1)NC(=O)[C@@H](NC(=O)CNC(=O)[C@@H](N)Cc1ccccc1)[C@@H](C)OC(C)(C)C)C(=O)N1CCC[C@H]1C(=O)N[C@@H](C)C(=O)N1CCC[C@H]1C(=O)O` [H-Phe-Gly-Thr(tBu)-His(Trt)-Gly-Leu-Pro-Ala-Pro-OH], the ring closure, yield over several steps (27-membered ring) is 57%.
